# What was measured:
# [1] = Precipitation study of vinorelbine with mono- and polyvalent counterion donors; assay type: physicochemical
# Description: As shown in Example 7, the percentage of encapsulated vinorelbine remaining after plasma incubation is adjustable according to the present invention. The percentage of encapsulated therapeutic agent remaining after plasma incubation can be monitored by precipitation among encapsulated therapeutic agent(s) and counterion donor(s) in the aqueous environment as in FIG. 1, FIG. 5, and FIG. 6. The counterion donors could be selected from monovalent counterion donor(s), polyvalent counterion donor(s), or a combination thereof.
# (§1) To examine the precipitation, therapeutic agent solution(s) and counterion donor(s), or therapeutic agent solution(s) and combination of counterion donors were mixed, followed by vigorous agitation and high speed centrifugation to separate insoluble precipitate and free form therapeutic agent(s). The concentration of the free form therapeutic agent(s) was determined by measuring the corresponding absorbance with a plate reader.
# Various compositions were prepared by mixing 60 mg/mL of vinorelbine solution and liposomes with 1 mM to 22.5 mM of dextran sulfate (molecular weight 1,600), or with 300 mM of ammonium sulfate and 1 mM to 22.5 mM of dextran sulfate (molecular weight 1,600), followed by vigorous agitation by vortex and centrifugation at 21,460×g for 30 minutes to separate insoluble precipitate from free-form vinorelbine. The volume ratio for mixing the vinorelbine solution and the counterion donor solution was 1:2, with the final equivalent counterion donor concentrations shown in Table 12.
# [2] = Precipitation study of irinotecan with mono- and polyvalent counterion donors; assay type: physicochemical
# Description: as §1
# Various compositions were prepared by mixing 60 mg/mL of irinotecan solution and liposomes with 1 mM to 22.5 mM of dextran sulfate (molecular weight 1,600), or with 300 mM of ammonium sulfate and 1 mM to 22.5 mM of dextran sulfate (molecular weight 1,600), followed by vigorous agitation by vortex and centrifugation at 21,460×g for 30 minutes to separate insoluble precipitate from free-form irinotecan. The volume ratio for mixing the irinotecan solution and the counterion donor solution was 1:2, with the final equivalent counterion donor concentrations shown in Table 13.
# [3] = AS = 0 mM, DS = 0.67 mM (5.27 mEq/L)
# [4] = AS = 0 mM, DS = 2.5 mM (19.68 mEq/L)
# [5] = AS = 0 mM, DS = 5 mM (39.35 mEq/L)
# [6] = AS = 0 mM, DS = 15 mM (118.05 mEq/L)
# [7] = AS = 200 mM, DS = 0 mM (0 mEq/L)
# [8] = AS = 200 mM, DS = 0.67 mM (5.27 mEq/L)
# [9] = AS = 200 mM, DS = 2.5 mM (19.68 mEq/L)
# [10] = AS = 200 mM, DS = 5 mM (39.35 mEq/L)
# [11] = AS = 200 mM, DS = 15 mM (118.05 mEq/L)
compound,measurement,setting,value
CCC1=C[C@@H]2CN(C1)Cc1c([nH]c3ccccc13)[C@@](C(=O)OC)(c1cc3c(cc1OC)N(C)[C@H]1[C@@](O)(C(=O)OC)[C@H](OC(C)=O)[C@]4(CC)C=CCN5CC[C@]31[C@@H]54)C2 [vinorelbine],Percentage of free-form VNB remaining,"[1]; AS = 0 mM, DS = 0 mM",100.7%
same,Percentage of free-form VNB remaining,[1]; [3],87.1%
same,Percentage of free-form VNB remaining,[1]; [4],54.0%
same,Percentage of free-form VNB remaining,[1]; [5],11.0%
same,Percentage of free-form VNB remaining,[1]; [6],5.4%
same,Percentage of free-form VNB remaining,[1]; [7],97.6%
same,Percentage of free-form VNB remaining,[1]; [8],83.3%
same,Percentage of free-form VNB remaining,[1]; [9],59.0%
same,Percentage of free-form VNB remaining,[1]; [10],21.2%
same,Percentage of free-form VNB remaining,[1]; [11],5.7%
same,visible precipitation with sodium dextran sulfate,[1]; FIG. 5 left,precipitation
same,visible precipitation with ammonium sulfate,[1]; FIG. 5 right,no visible precipitation
same,enhancement of free-form vinorelbine by ammonium sulfate (as compared to DS alone),"[1]; maximum, at DS of 39.35 mEq/L",up to 10.2%
CCc1c2c(nc3ccc(OC(=O)N4CCC(N5CCCCC5)CC4)cc13)-c1cc3c(c(=O)n1C2)COC(=O)[C@]3(O)CC [irinotecan],Percentage of free-form CPT11 remaining,"[2]; AS = 0 mM, DS = 0 mM",103.4%
same,Percentage of free-form CPT11 remaining,[2]; [3],82.0%
same,Percentage of free-form CPT11 remaining,"[2]; AS = 0 mM, DS = 1.6 mM (12.59 mEq/L)",50.9%
same,Percentage of free-form CPT11 remaining,[2]; [4],27.3%
same,Percentage of free-form CPT11 remaining,[2]; [5],2.3%
same,Percentage of free-form CPT11 remaining,[2]; [6],3.8%
same,Percentage of free-form CPT11 remaining,[2]; [7],101.1%
same,Percentage of free-form CPT11 remaining,[2]; [8],83.8%
same,Percentage of free-form CPT11 remaining,"[2]; AS = 200 mM, DS = 1.6 mM (12.59 mEq/L)",59.4%
same,Percentage of free-form CPT11 remaining,[2]; [9],38.3%
same,Percentage of free-form CPT11 remaining,[2]; [10],9.7%
same,Percentage of free-form CPT11 remaining,[2]; [11],9.0%
same,visible precipitation with sodium dextran sulfate,[2]; FIG. 6 left,precipitation
same,visible precipitation with ammonium sulfate,[2]; FIG. 6 right,no visible precipitation
same,enhancement of free-form irinotecan by ammonium sulfate (as compared to DS alone),"[2]; maximum, at DS of 19.68 mEq/L",up to 11%
